Results taken from patent publication US6399782B1, “Benzimidazole inhibitors of fructose 1,6-bisphosphatase” (Metabasis Therapeutics, Inc., priority 1997, dated 2002).
pIC50: −log10 of the molar value. Structures can show the parent of a compound that is named as a salt.

Key:
[1] = Estimation of the oral bioavailability of prodrugs of phosphonic acids; format: in vivo; conditions: rat; for % Oral bioavailability: prodrug by oral gavage approximately 20 or 40 mg/kg parent equivalents, urinary recovery of parent vs i.v. parent
Protocol: Prodrugs were dissolved in 10% ethanol/90% polyethylene glycol (mw 400) and administered by oral gavage at doses of approximately 20 or 40 mg/kg parent compound equivalents to 6-hour fasted, Sprague Dawley rats (220-240 g). The rats were subsequently placed in metabolic cages and urine was collected for 24 hours. The quantity of parent compound excreted into urine was determined by HPLC analysis. An ODS column eluted with a gradient from potassium phosphate buffer, pH 5.5 to acetonitrile was employed for these measurements. Detection was at 310-325 nm. […] Parent compounds were typically dissolved in dimethyl sulfoxide, and administered via the tail vein in animals that were briefly anesthetized with halothane.

[2] = biological target: T1, mouse liver FBPase (Mus musculus, UniProt Q9QXD6); assay: Inhibition of mouse liver FBPase; format: biochemical; conditions: partially purified mouse liver fraction
T1 construct: This partially purified fraction was used for enzyme assays; from tissue; host or cells: mouse liver, 45-75% ammonium sulfate fraction
T1 sequence (Q9QXD6 2-338 limits assumed): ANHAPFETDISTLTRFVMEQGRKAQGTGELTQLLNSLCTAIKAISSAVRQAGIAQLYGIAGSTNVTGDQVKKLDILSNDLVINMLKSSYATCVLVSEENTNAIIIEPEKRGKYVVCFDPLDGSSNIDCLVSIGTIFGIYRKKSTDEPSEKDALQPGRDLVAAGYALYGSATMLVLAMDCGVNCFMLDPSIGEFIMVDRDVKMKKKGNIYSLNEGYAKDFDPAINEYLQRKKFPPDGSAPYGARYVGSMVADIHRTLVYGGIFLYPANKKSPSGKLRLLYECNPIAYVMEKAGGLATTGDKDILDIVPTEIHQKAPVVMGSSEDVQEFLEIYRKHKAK
Protocol: Enzymatic activity was measured spectrophotometrically in reactions that coupled the formation of product (fructose 6-phosphate) to the reduction of dimethylthiazoldiphenyltetrazolium bromide (MTT) via NADP and phenazine methosulfate (PMS), using phosphoglucose isomerase and glucose 6-phosphate dehydrogenase as the coupling enzymes. Reaction mixtures (200 μl) were made up in 96-well microtitre plates, and consisted of 50 mM Tris-HCl, pH 7.4, 100 mM KCl, 5 mM EGTA, 2 mM MgCl2, 0.2 mM NADP, 1 mg/ml BSA, 1 mM MTT, 0.6 mM PMS, 1 unit/mL phosphoglucose isomerase, 2 units/mL glucose 6-phosphate dehydrogenase, and 0.150 mM substrate (fructose 1,6-bisphosphate). Inhibitor concentrations were varied from 0.01 μM to 10 μM.
Mouse liver FBPase was obtained by homogenizing freshly isolated mouse liver in 100 mM Tris-HCl buffer, pH 7.4, containing 1 mM EGTA, and 10% glycerol. […] This fraction was redissolved in the homogenization buffer and desalted on a PD-10 gel filtration column (Biorad) eluted with same. This partially purified fraction was used for enzyme assays. Both rat liver and mouse liver FBPase were assayed as described for human liver FBPase.

[3] = tested on: rat hepatocytes; assay: Inhibition of gluconeogenesis in rat hepatocytes; format: cell-based; conditions: Hepatocyte; glucose production from lactate/pyruvate, isolated rat hepatocytes, 1 hour
Protocol: Hepatocytes were prepared from overnight fasted Sprague-Dawley rats (250-300 g) according to the procedure of Berry and Friend (Berry, M. N., Friend, D. S., 1969, J. Cell. Biol. 43, 506-520) as modified by Groen (Groen, A. K., Sips, H. J., Vervoorn, R. C., Tager, J. M., 1982, Eur. J. Biochem. 122, 87-93). Hepatocytes (75 mg wet weight/mL) were incubated in 1 ml Krebs-bicarbonate buffer containing 10 mM Lactate, 1 mM pyruvate, 1 mg/mL BSA, and test compound concentrations from 1 to 500 μM. Incubations were carried out in a 95% oxygen, 5% carbon dioxide atmosphere in closed, 50-mL Falcon tubes submerged in a rapidly shaking water bath (37° C.). After 1 hour, an aliquot (0.25 mL) was removed, transferred to an Eppendorf tube and centrifuged. 50 μL of supernatant was then assayed for glucose content using a Sigma Glucose Oxidase kit as per the manufacturer's instructions.

[4] = biological target: T2, human liver FBPase (Homo sapiens, UniProt P09467); assay: Inhibition of human liver FBPase; format: biochemical; conditions: result in words
T2 construct: made in house; host or cells: E. coli BL21
T2 sequence (P09467 2-338 limits assumed): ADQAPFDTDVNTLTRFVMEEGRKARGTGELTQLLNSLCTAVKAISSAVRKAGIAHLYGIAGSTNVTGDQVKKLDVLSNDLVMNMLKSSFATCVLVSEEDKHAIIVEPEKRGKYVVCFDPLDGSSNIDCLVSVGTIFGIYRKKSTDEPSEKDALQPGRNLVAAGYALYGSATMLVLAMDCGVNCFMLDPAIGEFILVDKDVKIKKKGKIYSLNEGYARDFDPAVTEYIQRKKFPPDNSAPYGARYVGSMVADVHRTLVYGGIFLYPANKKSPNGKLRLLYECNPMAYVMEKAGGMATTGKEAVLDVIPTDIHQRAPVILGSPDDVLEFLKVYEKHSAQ
Protocol: Enzymatic activity was measured spectrophotometrically in reactions that coupled the formation of product (fructose 6-phosphate) to the reduction of dimethylthiazoldiphenyltetrazolium bromide (MTT) via NADP and phenazine methosulfate (PMS), using phosphoglucose isomerase and glucose 6-phosphate dehydrogenase as the coupling enzymes. Reaction mixtures (200 μl) were made up in 96-well microtitre plates, and consisted of 50 mM Tris-HCl, pH 7.4, 100 mM KCl, 5 mM EGTA, 2 mM MgCl2, 0.2 mM NADP, 1 mg/ml BSA, 1 mM MTT, 0.6 mM PMS, 1 unit/mL phosphoglucose isomerase, 2 units/mL glucose 6-phosphate dehydrogenase, and 0.150 mM substrate (fructose 1,6-bisphosphate). Inhibitor concentrations were varied from 0.01 μM to 10 μM. Reactions were started by the addition of 0.002 units of pure hlFBPase and were monitored for 7 minutes at 590 nm in a Molecular Devices Plate Reader (37° C.).

Compound | pIC50 [2] | melting point | also measured
CC(C)(C)Cn1c(-c2ccc(P(=O)(O)O)o2)nc2c(N)ncnc21 [Compound B] | – | – | % of intravenous dose recovered in urine ([1]; intravenous approximately 10 mg/kg, 24 hour urine): 76.8%
CC(C)(C)Cn1c(-c2ccc(P(=O)(O)O)o2)nc2ccc(Cl)cc21 [Compound 13.56, 6-Chloro-1-neopentyl-2-(2-phosphono-5-furanyl)benzimidazole] | < 4.70 | – | –
CC(C)Cn1c(COCP(=O)(O)O)nc2c(N)c(F)cc(Br)c21 [Compound 15.1, 4-Amino-5-fluoro-7-bromo-1-isobutyl-2-(1-methoxymethyl-3-phosphono)benzimidazole] | 5.82 | 200 to 202 °C (dec.) | pIC50 [3]: 4.80
COC(=O)OCC1COP(=O)(c2ccc(-c3nc4ccc(Cl)cc4n3CC(C)C)o2)OC1 (stereo not drawn) [Compound 31.15, 6-Chloro-1-isobutyl-2-{5-[2-(methoxycarbonyloxymethyl)-propan-1,3-yl]phosphono-2-furanyl}benzimidazole] | – | – | % Oral bioavailability [1]: 14.1%
4-Amino-5-fluoro-7-bromo-1-isobutyl-2-(1-methoxymethyl-3-bispivaloyloxymethylphosphonate)benzimidazole [Compound 18.7] | – | – | % Oral bioavailability [1]: 6.9%
Nc1cccc2c1nc(-c1ccc(P(=O)(O)O)o1)n2Cc1ccoc1 [Compound 12.37, 4-Amino-1-(3-furanylmethyl)-2-[2-(5-phosphono)furanyl]benzimidazole] | 5.90 | – | –
COC(=O)c1cccc(Cn2c(-c3ccc(P(=O)(O)O)o3)nc3c(N)cccc32)c1 [Compound 12.6, 4-Amino-1-(3-carbomethoxybenzyl)-2-[2-(5-phosphono)furanyl]benzimidazole] | < 4.70 | 198 to 202 °C | –
CC(C)Cn1c(-c2ccc(P(=O)(O)O)o2)nc2c(N)c(F)cc(CCCO)c21 [Compound 12.79, 4-Amino-7-(propane-3-ol)-5-fluoro-1-isobutyl-2-(2-phosphono-5-furanyl)benzimidazole] | 6.14 | 170 to 173 °C | pIC50 [3]: 6.00
CC(C)C(=O)OCOP(=O)(OCOC(=O)C(C)C)c1ccc(-c2nc3c(N)ncnc3n2CC(C)(C)C)o1 [Compound A] | – | – | oral bioavailability (calculated 6.2/76.8) ([1]; oral approximately 20 mg/kg): approximately 8%; % of oral dose recovered in urine ([1]; oral approximately 20 mg/kg, parent compound in 24 hour urine): 6.2%
CC(C)Cn1c(-c2ccc(P(=O)(O)O)o2)nc2c(N)c(F)cc(CCCCBr)c21 [Compound 12.82, 4-Amino-5-fluoro-7-(4-bromobutyl)-1-isobutyl-2-(2-phosphono-5-furanyl)benzimidazole] | 6.52 | 200 to 220 °C (dec.) | pIC50 [3]: 5.66
CC(C)(C)Cn1c(-c2ccc(P(=O)(OCOC(=O)C(C)(C)C)OCOC(=O)C(C)(C)C)o2)nc2c(N)ncnc21 [Compound C] | – | – | % Oral bioavailability [1]: 5.3%
CCc1ccc2c(nc(-c3ccc(P(=O)(O)O)o3)n2CC(C)C)c1N [Compound 12.52, 4-Amino-5-ethyl-1-isobutyl-2-(2-phosphono-5-furanyl)benzimidazole] | 6.11 | 220 to 225 °C | inhibition of human liver FBPase activity (FIG. 2) [4]: inhibit human liver FBPase activity in vitro in a dose dependent manner
CC(=O)OCC1COP(=O)(c2ccc(-c3nc4ccc(Cl)cc4n3CC(C)C)o2)OC1 (stereo not drawn) [Compound 31.14, 6-Chloro-1-isobutyl-2-{5-[2-(acetoxymethyl)-propan-1,3-yl]phosphono-2-furanyl}benzimidazole] | – | – | % Oral bioavailability [1]: 12.5%
Cc1c(Cl)ccc2c1nc(-c1ccc(P(=O)(O)O)o1)n2CC(C)C [Compound 13.96, 1-Isobutyl-4-methyl-5-chloro-2-(2-phosphono-5-furanyl)benzimidazole] | 6.15 | – | –
Cc1c(Cl)cc2c(nc(-c3ccc(P(=O)(O)O)o3)n2CC2CC2)c1C [Compound 13.61, 6-Chloro-4,5-dimethyl-1-cyclopropylmethyl-2-(2-phosphono-5-furanyl)benzimidazole] | < 4.70 | 219 to 220 °C | –
CC(C)Cn1c(-c2ccc(P(=O)(O)O)o2)nc2c(O)cccc21 [Compound 13.21, 4-Hydroxy-1-isobutyl-2-(2-phosphono-5-furanyl)benzimidazole] | < 4.70 | 244 to 245 °C | –
CC(C)Cn1c(-c2ccc(P(=O)(O)O)o2)nc2c(N)c(F)cc(Cl)c21 [Compound 12.54, 4-Amino-5-fluoro-7-chloro-1-isobutyl-2-(2-phosphono-5-furanyl)benzimidazole] | 5.97 | 220 to 225 °C | –
CC(C)(C)Cn1c(-c2ccc(P(=O)(O)O)o2)nc2c(F)cccc21 [Compound 13.25, 4-Fluoro-1-neopentyl-2-(2-phosphonofuranyl)benzimidazole] | < 4.70 | – | –
CC(C)Cn1c(-c2ccc(P(=O)(O)O)o2)nc2c(N)c(F)cc(CCCBr)c21 [Compound 12.80, 4-Amino-5-fluoro-7-(3-bromopropyl)-1-isobutyl-2-(2-phosphono-5-furanyl)benzimidazole] | 6.52 | 190 to 195 °C (dec.) | pIC50 [3]: 5.80
CC(C)Cn1c(-c2ccc(P(=O)(O)O)o2)nc2c(N)c(F)cc(CCCN(C)C)c21 [Compound 12.84, 4-Amino-5-fluoro-7-(3-N,N-dimethylpropylamine)-1-isobutyl-2-(2-phosphono-5-furanyl)benzimidazole hydrobromide salt] | 6.30 | – | –
CC(C)Cn1c(-c2ccc(P3(=O)OCC(CO)CO3)o2)nc2ccc(Cl)cc21 (stereo not drawn) [Compound 31.13, 6-Chloro-1-isobutyl-2-{5-[2-(hydroxymethyl)-propan-1,3-yl]phosphono-2-furanyl}benzimidazole] | – | – | % Oral bioavailability [1]: 10.9%
Nc1cccc2c1nc(-c1ccc(P(=O)(O)O)o1)n2CCCCl [Compound 12.35, 4-Amino-1-(3-chloropropyl)-2-[2-(5-phosphono)furanyl]benzimidazole] | < 4.70 | – | –
O=C(NCP(=O)(O)O)c1nc2ccccc2[nH]1 [Compound 13.66, N-(Phosphonomethyl)benzimidazole-2-carboxamide] | < 4.70 | 258 to 260 °C | –
